# Results taken from US9238797B2, “Method for production of pluripotent stem cell” (TAKARA BIO INC., priority 2008, dated 2016).
# Assays:
# Assay type in all cases: cell-based
# human skin fibroblast [1] = experiment: Gene transfer efficiency with two retrovirus vectors, double positive cells (Example 9); details: 5 days after gene transfer
# Method: According to the same manner as that of Example 8-(1), immobilization of Retronectin on a culture plate was carried out.
# According to the same manner as that of Example 8-(2), gene transfer was carried out, provided that a group in which a virus solution is diluted 10-fold or 100-fold with 10F-DMEM was set.
# According to the same manner as that of Example 8-(3), a gene transfer efficiency was measured, provided that measurement with a flow cytometer was carried out 5 days after gene transfer operation.
# human skin fibroblast [2] = experiment: Gene transfer efficiency with two retrovirus vectors, AcGFP1/mStrawberry double positive cells by flow cytometer (Example 8); details: 3 days after gene transfer
# Method: According to the same manner as that of Example 1-(1), immobilization of Retronectin on a culture plate was carried out, provided that a non-treatment 24-well culture plate (manufactured by Becton, Dickinson and Company) was used, and a Retronectin solution was added to each well by each 500 μL.
# Gene transfer with Retronectin was carried out according to the same manner as that of Example 3-(2), provided that a retrovirus vector was a combination of DON-am-AcGFP1 and DONAI2-am-mStrawberry, and gene transfer was carried out by mixing each 250 μL of virus solutions. Further, a group of mixing 250 μL of a virus solution diluted 50-fold with 10F-DMEM was also set. In addition, a cell was suspended in a medium to 4×10^4 cells/mL, and each 500 μL was added to each well.
# Gene transfer with polybrene was carried out in the same combination as that of retrovirus vectors according to the same manner as that of gene transfer with polybrene of Example 7-(2), provided that the cell was suspended in a medium to 4×10^4 cells/mL, and each 500 μL was added to each well of a 24-well culture plate (manufactured by Corning). […]
# After 3 days from gene transfer operation, the cells were recovered, and AcGFP1 positive and mStrawberry positive cells were measured with a flow cytometer (CytomicsFC500, manufactured by Beckmann Coulter Inc.).
# human skin fibroblast [3] = experiment: iPS cell colony induction with three genes OCT4, SOX2 and KLF4, Retronectin or polybrene (Example 11); details: OCT4, SOX2 and KLF4 only, 28th day of culture, N=2
# Method: By limiting a gene to be introduced to three kinds of OCT4, SOX2 and KLF4, the same experiment as that of Example 10 was carried out.
# According to the same manner as that of Example 10-(2), gene transfer was carried out, provided that, as the retrovirus vector, retrovirus vectors DON5-am-OCT4-IR-SOX2 and DON5-am-KLF4 prepared in Preparation Example 2 were used.
# According to the same manner as that of Example 10-(4), the gene-introduced cell was seeded on a feeder cell, and culturing was continued.
# Culturing was carried out according to the same manner as that of Example 10-(5).
# (§1) In addition, the number in the Table indicates an average value of N=2.
# [4] = system: mouse embryonic fibroblast; MEF; experiment: Efficiency of introducing a retrovirus vector into MEF, AcGFP1 positive cell rate (Example 23); details: four days after gene transfer
# Method: An efficiency of introducing a gene into MEF using a retrovirus vector was compared between a Retronectin method and a polybrene method.
# According to the same manner as that of Example 1-(1), immobilization of Retronectin on a culture plate was carried out, provided that, as a plate on which Retronectin is coated, a non-treatment 12-well plate (manufactured by Becton, Dickinson and Company) was used, and each 1 mL of a Retronectin solution (25 μg/mL) was added to each well.
# According to the same manner as that of Example 19-(2) and (3), gene transfer was carried out. The retrovirus vector was prepared according to the same manner as that of Preparation Example 3, and DON-eco-AcGFP1 made using pE-Eco plasmid (manufactured by TAKARA BIO INC.) in place of pE-Ampho plasmid was used. Each of the prepared retrovirus vector as a stock solution, and solutions obtained by diluting the stock solution by each 10-fold to 100000-fold with 10F-DMEM was used for infection. In addition, as a target cell, MEF (manufactured by Millipore) was used.
# On the next day of gene transfer, the medium was exchanged with 10F-DMEM.
# Four days after a gene transfer operation, the cells were recovered, and an AcGFP1 positive cell rate was measured with a flow cytometer.
# human skin fibroblast [5] = experiment: iPS cell colony induction, Retronectin or polybrene with changed virus amount (Example 10); details: 28th day of culture, N=2
# Method: Regarding gene transfer with a retrovirus vector, an amount of retrovirus was further changed in the condition under which each of Retronectin or polybrene was used, and induction of a pluripotent stem cell was carried out, followed by comparison. According to the same manner as that of Example 7-(2), gene transfer was carried out, provided that a group in which a virus solution is diluted 10-fold or 100-fold with 10F-DMEM was set. […] According to the same manner as that of Example 7-(4), the gene-introduced cell was seeded on a feeder cell, and culturing was continued, provided that the gene-introduced cell was seeded by each 2×10^4 cells. […] In addition, the number in the Table indicates an average value of N=2.
# [6] = system: human adult skin fibroblasts; experiment: iPS cell colony induction, differences between donors, Retronectin or polybrene (Example 13); details: virus 10-fold dilution, 25th day of culture, N=2
# Method: Regarding gene transfer with a retrovirus vector, a pluripotent stem cell was induced using Retronectin or polybrene, targeting four kinds of human adult skin fibroblasts as in Example 12, followed by comparison.
# According to the same manner as that of Example 1-(1), immobilization of Retronectin on a culture plate was carried out, provided that a non-treatment 12-well culture plate (manufactured by Becton, Dickinson and Company) was used, and each 1 mL of a Retronectin solution was added to each well.
# According to the same manner as that of Example 7-(2), gene transfer was carried out (day 0 of culturing), provided that a 12-well plate for culturing a cell (manufactured by Corning) was used in gene transfer with polybrene. A virus solution was added to each well by each 1 mL by diluting 10-fold a solution obtained by mixing equal amounts of three kinds of vectors, with 10F-DMEM.
# On the sixth day of culture, according to the same manner as that of Example 5-(4), the gene-introduced cell was seeded on a feeder cell, and culturing was continued.
# According to the same manner as that of Example 10-(5), culturing on the feeder cell was carried out until the 25th day of culture.
# as §1
substance,measurement,setting,value
"Retronectin: fragment of fibronectin having a heparin-II binding region (registered trademark, CH-296, TAKARA BIO INC.)",Ratio of both positive cells,human skin fibroblast [1]; virus 10-fold dilution,55.4
same,Ratio of both positive cells,human skin fibroblast [1]; virus 100-fold dilution,67.6
same,Ratio of both positive cells,human skin fibroblast [1]; virus solution undiluted,33.9
same,Ratio of double positive cells,human skin fibroblast [2]; virus 50-fold dilution,66.5%
same,Ratio of double positive cells,human skin fibroblast [2]; virus solution undiluted,40.7%
same,Number of iPS cell colonies,human skin fibroblast [3]; virus 10-fold dilution,28.0
same,Number of iPS cell colonies,human skin fibroblast [3]; virus 100-fold dilution,32.0
same,Number of iPS cell colonies,human skin fibroblast [3]; virus solution undiluted,13.0
same,Positive cell rate,[4]; Virus concentration 0.00001,5.9%
same,Positive cell rate,[4]; Virus concentration 0.0001,15.3%
same,Positive cell rate,[4]; Virus concentration 0.001,41.3%
same,Positive cell rate,[4]; Virus concentration 0.01,64.6%
same,Positive cell rate,[4]; Virus concentration 0.1,80.3%
same,Positive cell rate,[4]; Virus concentration 1.0,84.1%
same,Number of iPS cell colonies,human skin fibroblast [5]; virus 10-fold dilution,12.0
same,Number of iPS cell colonies,human skin fibroblast [5]; virus 100-fold dilution,17.5
same,Number of iPS cell colonies,human skin fibroblast [5]; virus solution undiluted,6.5
same,Number of iPS cell colonies,[6]; Cell A,81.0
same,Number of iPS cell colonies,[6]; Cell B,6.5
same,Number of iPS cell colonies,[6]; Cell C,114.0
same,Number of iPS cell colonies,[6]; Cell D,44.5
